Assay results from publication doi:10.1101/2023.04.18.537371v1 (bioRxiv, 2023).
Ends that are not written are not given here.

Tests used:
TLR2 = conditions: read-out: KD for binding to TLR2; ref 1 (Li et al); cited from earlier work
[1] = Plasma and brain levels in male CD-1 mice after a single IP dose; type: in vivo, CD-1 mouse; conditions: for Tissue Homogenate Conc / Plasma Conc: male CD-1 mice, IP 10 mg/kg single
[2] = male, CD-1, mouse, brain homogenate, ip, 10 mg/kg
[3] = male, CD-1, mouse, brain, ip, 10 mg/kg
[4] = male, CD-1, mouse, plasma, ip, 10 mg/kg

**Q.** For “RKDVY [TP5, thymopentin, reference compound] [listing 1 of 2 here]”, which Kd (TLR2) is on record?
**A.** Its Kd is 1.57 µM.

**Q.** Which results are given for “RKDVY [TP5, thymopentin, reference compound] [listing 2 of 2 here]”?
**A.** Tissue Homogenate Conc ([1]; brain homogenate, 0.5 h, animal 2): 2.17 ng/mL; Tissue Homogenate Conc ([1]; brain homogenate, 0.5 h, animal 3): 3.18 ng/mL; Tissue Homogenate Conc ([1]; brain homogenate, 1 h, animal 1): 1.69 ng/mL; Tissue Homogenate Conc ([1]; brain homogenate, 1 h, animal 2): 1.78 ng/mL; Tissue Homogenate Conc ([1]; brain homogenate, 1 h, animal 3): 2.20 ng/mL; Tissue Homogenate Conc ([1]; brain homogenate, 2 h, animal 1): 1.64 ng/mL; Tissue Homogenate Conc ([1]; brain homogenate, 2 h, animal 2): 1.28 ng/mL; Tissue Homogenate Conc ([1]; brain homogenate, 2 h, animal 3): 1.22 ng/mL; Tissue Homogenate Conc ([1]; brain homogenate, 4 h, animal 1): 1.16 ng/mL; Tissue Homogenate Conc ([1]; brain homogenate, 4 h, animal 2): 1.03 ng/mL; Tissue Homogenate Conc ([1]; brain homogenate, 4 h, animal 3): 1.08 ng/mL; level at 0.5 h [1, 2]: 2.56 ng/mL; level at 1 h [1, 2]: 1.89 ng/mL; level at 2 h [1, 2]: 1.38 ng/mL; level at 4 h [1, 2]: 1.09 ng/mL; tissue level at time at 0.5 h [1, 3]: 10.3 ng/g; tissue level at time at 1 h [1, 3]: 7.56 ng/g; tissue level at time at 2 h [1, 3]: 5.52 ng/g; tissue level at time at 4 h [1, 3]: 4.36 ng/g; level at 0.5 h [1, 4]: 132 ng/mL; level at 1 h [1, 4]: 90.9 ng/mL; level at 2 h [1, 4]: 59.5 ng/mL; level at 4 h [1, 4]: 49 ng/mL; level at 8 h [1, 4]: 27.6 ng/mL; Plasma Conc ([1]; plasma, 0.5 h, animal 1, LC-MS/MS): 144 ng/mL; Plasma Conc ([1]; plasma, 0.5 h, animal 2): 136 ng/mL; Plasma Conc ([1]; plasma, 0.5 h, animal 3): 115 ng/mL; Plasma Conc ([1]; plasma, 1 h, animal 1): 80.1 ng/mL; Plasma Conc ([1]; plasma, 1 h, animal 2): 107 ng/mL; Plasma Conc ([1]; plasma, 1 h, animal 3): 85.7 ng/mL; Plasma Conc ([1]; plasma, 2 h, animal 1): 56.5 ng/mL; Plasma Conc ([1]; plasma, 2 h, animal 2): 67.2 ng/mL; Plasma Conc ([1]; plasma, 2 h, animal 3): 54.8 ng/mL; Plasma Conc ([1]; plasma, 4 h, animal 1): 53.4 ng/mL; Plasma Conc ([1]; plasma, 4 h, animal 2): 42.2 ng/mL; Plasma Conc ([1]; plasma, 4 h, animal 3): 51.3 ng/mL; Plasma Conc ([1]; plasma, 8 h, animal 1): 28.7 ng/mL; Plasma Conc ([1]; plasma, 8 h, animal 2): 30.6 ng/mL; Plasma Conc ([1]; plasma, 8 h, animal 3): 23.6 ng/mL
